The values below come from patent publication US20060008849A1, “Methods for measuring chloride channel conductivity” (priority 2004, published 2006).

One assay deals with T1, human GABAA channel (UniProt P18508+P28472+P62813).
T1 construct: host or cells: ATCC CRL-2029 (WSS-1, HEK293-derived, by own knowledge)
Nature of the assay: Sandell-Kolthoff (SK) assay on the outwardly rectifying GABAA receptor (iodide efflux). As to conditions: IC50, decrease of GABAA channel conductivity. The class given is cell-based. As for the experimental part: In addition, the iodine loading buffer consisting of 150 mM NaI, 2 mM CaCl2, 0.8 mM NaH2PO4, 1 mM of MgCl2, and 5 mM of IK, 2% FBS (# 35-010-AV, CELLGRO, VA) pH7.4, was prepared by mixing and dissolving each described component into purified water, and adjusting the pH accordingly.
Cell line expressing human GABAA (Adenovirus type) was obtained from the American Type Culture Collection (ATCC, Cat No. CRL-2029). Cells were grown in supplemented DMEM medium consisting of DMEM medium (#10-017-CV, CELLGRO, VA), 4 mM L-glutamine, 1.5 g/L sodium bicarbonate, 4.5 g/L glucose, 1.0 mM sodium pyruvate, and 10% fetal bovine serum (# 35-010-AV, CELLGRO, VA)
Cells in supplemented DMEM medium (200 μl, approx. 250,000 cells/ml) were added to each well of a D-lysine coated 96-well plate (Corning, Cat No. 3667), and were incubated overnight in a tissue culture incubator at 37° C. under 90% air/10% CO2. Then, the supplemented DMEM medium was removed with a multichannel pipettor, and 200 μl iodine-loading buffer was added to each well with Rapid Plate™ (Zymark, MA). Cells were incubated for 2-4 hours at 37° C. under 90% air/10% CO2, and were subsequently washed with phosphate buffer saline (DPBS, Invitrogen, CA), or culture medium. […] The amount of I^− in the lysed cells was measured by the SK assay procedure described in Example 1.
IC50s were calculated with IDBS XL-fit model 205 (IDBS, UK).

Another assay has as its system human CFTR channel. Nature of the assay: Sandell-Kolthoff (SK) assay on the outwardly rectifying CFTR channel, HTB-79 cells. It is filed as cell-based. As for the experimental part:
HTB-79 cell line intrinsically expressing the human CFTR channel was obtained from ATCC. The CRL-1918 cell line, having a defective CFTR channel, was also obtained from ATCC. Cells were grown in Iscove's modified Dulbecco's medium consisting of Iscove's modified medium (CELLGRO, VA) and 4 mM L-glutamine, 1.5 g/L sodium bicarbonate, and 20% FBS (CELLGRO, VA). HTB-79 cells in Iscove's modified Dulbecco's medium (200 μl, approx. 500,000 cells/ml) were added to each well of a costar 96-well plate (Corning Costar, NY), and were incubated overnight in a tissue culture incubator at 37° C. under 90% air/5% CO2. Then, the Iscove's modified Dulbecco's medium was removed and 200 μl of iodine-loading buffer was added to each well of the plate. Cells were incubated for 2-4 hours at 37° C. under 90% air/5% CO2 and washed with DPBS (Invitrogen, CA) or culture medium. DPBS (100-200 μl) was added to each well. […] After the cells were incubated at room temperature for an additional 5 minutes, they were separated from the suspending buffer, and were lysed with 100 μl of cell lysis buffer (1% Triton X-100). The amount of I^− in the lysed cells was measured by the SK assay procedure described in Example 1. […] Forskolin stimulated adenylate cyclase activity resulting in increased level of cAMP, which in turn activated CFTR channel.

As usually defined, the IC50 is the concentration that inhibits the measured activity by half. As a reminder, the EC50 is the concentration giving half of the maximal effect.

SMILES strings stand for the structures.

T1 sequence (P62813 28-455): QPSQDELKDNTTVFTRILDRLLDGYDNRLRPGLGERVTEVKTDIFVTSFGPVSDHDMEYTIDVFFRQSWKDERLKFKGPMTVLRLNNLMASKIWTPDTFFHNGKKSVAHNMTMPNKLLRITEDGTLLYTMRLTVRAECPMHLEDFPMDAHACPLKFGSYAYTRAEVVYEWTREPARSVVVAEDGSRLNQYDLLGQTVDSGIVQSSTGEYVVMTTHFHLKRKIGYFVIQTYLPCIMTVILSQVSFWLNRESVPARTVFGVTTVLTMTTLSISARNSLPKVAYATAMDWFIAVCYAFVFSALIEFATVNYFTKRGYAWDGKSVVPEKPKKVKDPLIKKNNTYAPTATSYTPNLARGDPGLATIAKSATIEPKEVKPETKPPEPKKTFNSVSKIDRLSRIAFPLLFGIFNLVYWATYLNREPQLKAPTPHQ
T1 sequence (P28472 26-473): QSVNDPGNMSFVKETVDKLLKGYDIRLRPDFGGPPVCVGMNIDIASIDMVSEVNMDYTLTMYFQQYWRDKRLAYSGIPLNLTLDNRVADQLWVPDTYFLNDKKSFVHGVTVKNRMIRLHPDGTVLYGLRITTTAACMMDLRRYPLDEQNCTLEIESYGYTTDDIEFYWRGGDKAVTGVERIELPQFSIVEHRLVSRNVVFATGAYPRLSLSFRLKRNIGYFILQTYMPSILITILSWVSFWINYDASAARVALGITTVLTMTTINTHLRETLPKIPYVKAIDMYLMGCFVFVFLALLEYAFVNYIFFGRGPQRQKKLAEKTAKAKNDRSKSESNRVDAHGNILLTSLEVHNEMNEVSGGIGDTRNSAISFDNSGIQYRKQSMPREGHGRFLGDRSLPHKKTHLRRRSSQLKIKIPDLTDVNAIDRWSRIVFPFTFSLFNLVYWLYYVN
T1 sequence (P18508 39-466): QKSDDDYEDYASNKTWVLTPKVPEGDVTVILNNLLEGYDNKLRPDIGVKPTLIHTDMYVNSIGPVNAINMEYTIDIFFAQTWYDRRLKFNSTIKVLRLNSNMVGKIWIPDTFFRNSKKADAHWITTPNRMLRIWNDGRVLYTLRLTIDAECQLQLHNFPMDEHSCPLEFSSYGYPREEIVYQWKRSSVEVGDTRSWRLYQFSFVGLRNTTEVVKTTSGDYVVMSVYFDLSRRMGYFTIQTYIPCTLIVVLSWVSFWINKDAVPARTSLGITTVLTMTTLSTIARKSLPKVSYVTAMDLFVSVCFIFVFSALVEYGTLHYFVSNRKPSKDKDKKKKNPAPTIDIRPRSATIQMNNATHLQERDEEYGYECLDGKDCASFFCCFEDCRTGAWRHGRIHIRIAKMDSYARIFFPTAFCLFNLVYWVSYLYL

Consider `CN1CCc2cc3c(cc2[C@H]1[C@@H]1OC(=O)c2c1ccc1c2OCO1)OCO3` [Bicuculline], for which the IC50 at human GABAA channel (in the presence of 30 μM GABA) is about 1000 nM; on human GABAA channel (in the presence of 300 μM GABA), about 50000 nM.
Turning to `C=C[C@@]1(C)CC(=O)[C@]2(O)[C@@]3(C)[C@@H](O)CCC(C)(C)[C@@H]3[C@H](O)[C@H](OC(C)=O)[C@@]2(C)O1` [Forskolin], the “lowest concentration at which activation of CFTR was detected” value with human CFTR channel stood at 300 nM. The EC50 with human CFTR channel (one-half of activity with 100 μM Forskolin, read-out: EC50 for Forskolin, activation of CFTR channel) stood at 1000 nM.
